Source: patent publication US7235679B2, “Crystals of a vitamin D derivative and a method for the preparation thereof” (Chugai Seiyaku Kabushiki Kaisha, priority 1996, dated 2007)

How the values were obtained:
Format in all cases: physicochemical
[1] = Stability test of ED-71: absorbance measurement at 265 nm (E 1%); conditions: absorbance at 265 nm
Procedure: (§1) Amorphous and crystalline ED-71 compounds were tested for stability at 10, 25 and […]. To estimate the stability, HPLC quantitative assay and absorbance and purity measurements were utilized. The purity was expressed as peak area ratio in percentage in HPLC (% P.A.R.). The test was carried out by using the following procedures:
(§2) About 2 mg portions of each of the amorphous and crystalline samples are precisely weighed into transparent 10 ml test tubes each having screw cap, individually.
(§3) The test tubes are purged with argon using a vacuum desiccator and a glove box. This purging procedure is not applied to the test tubes indicated as “1 M (air)” in the tables below.
(§4) The test tubes in groups are fixed in thermostatic baths which are respectively controlled at the above temperatures and allowed to stand in the dark. After one (1 W) or two (2 W) weeks or one month (1 M), the test tubes are removed from the baths and subjected to the following assay and measurements:
1 ml of the sample solution as prepared in “HPLC quantitative assay” above is diluted with absolute ethanol to give a whole volume of 10 ml and this diluted solution is then measured for the absorbance at 265 nm using a ultraviolet spectrophotometer. The absorbance is converted into E 1% value which is derived from Lambert-Beer Law and the conversion is made according to the following equation: E1%=A/cb wherein A is absorbance, c is concentration in g/100 ml and b is length of optical path in cm across the test solution, which is commonly 1. (4) Purity Measurement

[2] = Stability test of ED-71: purity measurement using normal phase HPLC; conditions: 265 nm
Procedure: as §1, §2, §3, §4
1 ml of the sample solution as prepared in “HPLC quantitative assay” above is dried in vacuo to remove the solvent (absolute ethanol). The residue is dissolved in 1 ml of methylene chloride. HPLC assay is carried out using 25 μl of this solution. • HPLC conditions used: • Column: YMC A-004SIL (4.6×300 mm) • Mobile phase: methylene chloride/methanol mixture (96/4) • Flow rate: 1.8 ml/min • Detection: at UV 265 nm.

[3] = Stability test of ED-71: purity measurement using reverse phase HPLC; conditions: 220 nm, 10° C.
Procedure: as §1, §2, §3, §4
HPLC is carried out using 25 μl of the sample solution as prepared in “HPLC quantitative assay” above. • HPLC conditions used: • Column: Inertsil ODS-2 (5×250 mm) • Mobile phase: acetonitrile/water mixture (55/45) • Flow rate: 1 ml/min • Detection: at UV 265 and 220 nm.

C=C1/C(=C\C=C2/CCC[C@]3(C)[C@@H]([C@H](C)CCCC(C)(C)O)CC[C@@H]23)C[C@@H](O)[C@@H](OCCCO)[C@@H]1O [Crys., 1α,25-dihydroxy-2β-(3-hydroxypropoxy)vitamin D3]
E 1% ([1]; 10° C., 1 M (air), dark): 341.7 | E 1% ([1]; 10° C., 1 M, argon, dark): 342.7 | E 1% ([1]; 10° C., 2 W, argon, dark): 343.8 | E 1% ([1]; 10° C., time 0): 359.2 | E 1% ([1]; 25° C., 1 W, argon, dark): 349.5 | E 1% ([1]; 25° C., 2 W, argon, dark): 341.6 | E 1% ([1]; 25° C., time 0): 359.2 | E 1% ([1]; 40° C., 1 W, argon, dark): 349.8 | E 1% ([1]; 40° C., 2 W, argon, dark): 348.7 | E 1% ([1]; 40° C., time 0): 359.2 | Purity Measurement Using Normal Phase HPLC, ED-71 peak ([2]; 10° C., 1 M (air), dark): 98.88 % P.A.R | Purity Measurement Using Normal Phase HPLC, Other peaks ([2]; 10° C., 1 M (air), dark): 0.46 % P.A.R | Purity Measurement Using Normal Phase HPLC, Pre Form peak ([2]; 10° C., 1 M (air), dark): 0.66 % P.A.R | Purity Measurement Using Normal Phase HPLC, ED-71 peak ([2]; 10° C., 1 M, argon, dark): 98.91 % P.A.R | Purity Measurement Using Normal Phase HPLC, Other peaks ([2]; 10° C., 1 M, argon, dark): 0.44 % P.A.R | Purity Measurement Using Normal Phase HPLC, Pre Form peak ([2]; 10° C., 1 M, argon, dark): 0.65 % P.A.R | Purity Measurement Using Normal Phase HPLC, ED-71 peak ([2]; 10° C., 2 W, argon, dark): 99.06 % P.A.R | Purity Measurement Using Normal Phase HPLC, Other peaks ([2]; 10° C., 2 W, argon, dark): 0.27 % P.A.R | Purity Measurement Using Normal Phase HPLC, Pre Form peak ([2]; 10° C., 2 W, argon, dark): 0.66 % P.A.R | Purity Measurement Using Normal Phase HPLC, ED-71 peak ([2]; 10° C., time 0): 99.15 % P.A.R | Purity Measurement Using Normal Phase HPLC, Other peaks ([2]; 10° C., time 0): 0.63 % P.A.R | Purity Measurement Using Normal Phase HPLC, Pre Form peak ([2]; 10° C., time 0): 0.21 % P.A.R | Purity Measurement Using Normal Phase HPLC, ED-71 peak ([2]; 25° C., 1 W, argon, dark): 99.56 % P.A.R | Purity Measurement Using Normal Phase HPLC, Other peaks ([2]; 25° C., 1 W, argon, dark): 0.30 % P.A.R | Purity Measurement Using Normal Phase HPLC, Pre Form peak ([2]; 25° C., 1 W, argon, dark): 0.14 % P.A.R | Purity Measurement Using Normal Phase HPLC, ED-71 peak ([2]; 25° C., 2 W, argon, dark): 98.95 % P.A.R | Purity Measurement Using Normal Phase HPLC, Other peaks ([2]; 25° C., 2 W, argon, dark): 0.38 % P.A.R | Purity Measurement Using Normal Phase HPLC, Pre Form peak ([2]; 25° C., 2 W, argon, dark): 0.67 % P.A.R | Purity Measurement Using Normal Phase HPLC, ED-71 peak ([2]; 25° C., time 0): 99.15 % P.A.R | Purity Measurement Using Normal Phase HPLC, Other peaks ([2]; 25° C., time 0): 0.63 % P.A.R | Purity Measurement Using Normal Phase HPLC, Pre Form peak ([2]; 25° C., time 0): 0.21 % P.A.R | Purity Measurement Using Normal Phase HPLC, ED-71 peak ([2]; 40° C., 1 W, argon, dark): 99.55 % P.A.R | Purity Measurement Using Normal Phase HPLC, Other peaks ([2]; 40° C., 1 W, argon, dark): 0.31 % P.A.R | Purity Measurement Using Normal Phase HPLC, Pre Form peak ([2]; 40° C., 1 W, argon, dark): 0.14 % P.A.R | Purity Measurement Using Normal Phase HPLC, ED-71 peak ([2]; 40° C., 2 W, argon, dark): 98.92 % P.A.R | Purity Measurement Using Normal Phase HPLC, Other peaks ([2]; 40° C., 2 W, argon, dark): 0.41 % P.A.R | Purity Measurement Using Normal Phase HPLC, Pre Form peak ([2]; 40° C., 2 W, argon, dark): 0.67 % P.A.R | Purity Measurement Using Normal Phase HPLC, ED-71 peak ([2]; 40° C., time 0): 99.15 % P.A.R | Purity Measurement Using Normal Phase HPLC, Other peaks ([2]; 40° C., time 0): 0.63 % P.A.R | Purity Measurement Using Normal Phase HPLC, Pre Form peak ([2]; 40° C., time 0): 0.21 % P.A.R | 220 nm (%), ED-71 peak ([3]; 1 M (air), dark): 97.09% | 220 nm (%), Other peaks ([3]; 1 M (air), dark): 1.82% | 220 nm (%), Pre Form peak ([3]; 1 M (air), dark): 1.09% | 220 nm (%), ED-71 peak ([3]; 1 M, argon, dark): 97.44% | 220 nm (%), Other peaks ([3]; 1 M, argon, dark): 1.51% | 220 nm (%), Pre Form peak ([3]; 1 M, argon, dark): 1.05% | 220 nm (%), ED-71 peak ([3]; 2 W, argon, dark): 97.91% | 220 nm (%), Other peaks ([3]; 2 W, argon, dark): 1.09% | 220 nm (%), Pre Form peak ([3]; 2 W, argon, dark): 1.01% | 220 nm (%), ED-71 peak ([3]; time 0): 97.44%
